Patent publication US7524866B2, “Prevention and treatment of androgen—deprivation induced osteoporosis” (GTx, Inc., priority 2001, dated 2009)

Legend:
[1] = tested on: orchidectomized (Orx/Cx) male Sprague-Dawley rats; assay: Distal right femur cancellous pQCT (Example 3); assay type: in vivo, rat; conditions: Toremifene 5 mg/kg/day; for cancellous bone mineral content and density (Orx-induced decrease of 34%): Orx rats, 17-β-Estradiol 0.5 mg/kg/day s.c.; for Total Bone Area / Total Bone Content / Total Bone Density / Trabecular Area / Trabecular Content / Trabecular Density: castrated (Cx) rats, distal right femur pQCT, mean, n=5, 17-β-estradiol 0.5 mg/kg/day s.c.
Description: Male Sprague-Dawley rats (Harlan Sprague Dawley) were placed on study at 14-weeks of age. They were randomized and divided into five treatment groups: vehicle only (placebo, or P) after sham operation, vehicle only after orchidectomy (Orx), Toremifene (5 mg/kg/day) after sham-operation, and Toremifene after orchidectomy, and 17-β-estradiol (0.5 mg/kg/day) after orchidectomy. Test articles were delivered subcutaneously by Alzet pumps. Pumps were re-implanted every 30 days until the end of the study. Five to six animals from each group were sacrificed after 60 and 120 days of treatment, and femurs were harvested, stripped of soft tissue and muscle, and stored individually in polypropylene vials at −80° C. until analysis of bone density and mechanical strength testing. Additionally, serum was collected on days 15, 30, 60, 90 and 120, to measure markers of bone metabolism and to perform serum chemistry.
Peripheral Quantitative Computed Tomography (pQCT)
Right femurs were subjected to pQCT analysis using a Stratec XCT-RM with associated software (Stratec Medizintechnik GmbH, Pforzheim, Germany. Software version 5.40 C). Femurs were scanned at two sites, 20% and 50% of the total femoral length measured from the distal femur. The position was verified using scout views, and scan results from two 0.5 mm slices perpendicular to the long axis of the femur shaft were recorded.

[2] = tested on: orchidectomized (Orx/Cx) male Sprague-Dawley rats; assay: Compression test of the distal right femur (Example 3); assay type: in vivo, rat; conditions: Toremifene 5 mg/kg/day; for mechanical strength parameters of the distal femur (maximum load, stiffness, ultimate strength, elastic modulus): Orx rats, 17-β-Estradiol 0.5 mg/kg/day s.c.; for Elastic Modulus / Energy / Maximum Load / Stiffness / Toughness / Ultimate Strength / CSA (cross sectional area): castrated (Cx) rats, n=5, 17-β-estradiol 0.5 mg/kg/day s.c.; for Elastic Modulus / Energy / Maximum Load / Stiffness / Toughness / Ultimate Strength: distal right femur compression; for CSA (cross sectional area): distal right femur specimen
Description: Using a Material Testing System (Model 5501R Instron Corp., Canton, Mass.), two types of mechanical testing were performed on the right femur. The load and extension curves were collected by the machine software (Merlin II, Instron Corp.). All tests were conducted using a 5 kN load cell at a constant loading rate of 6 mm/min. The general applications of the tests were as described in Turner and Burr (Bone, 1993; 14: 595-608) and Ke et al (Bone, 1998; 23, 249-255).
Compression Test of the Distal Femur
A compression test was used to determine the mechanical properties of the distal femur. The distal femur test specimen was obtained by removing a 3 mm segment directly proximal to the distal condyle using a slow speed diamond saw with constant saline irrigation. An electronic caliper was used to measure the average anterior/posterior diameter (a), medial/lateral diameter (b), and height (h) of the bone. The extrinsic parameters, maximal load (Fu), stiffness (S) and energy (W), were obtained from the load and extension curve. The following intrinsic parameters were calculated from the measured values: Cross sectional area (CSA)=(π*a*b)/4; Ultimate Strength (σ)=Fu/CSA; Elastic modulus (E)=S/(CSA/h); Toughness (T)=W/(CSA*h).

Osteocalcin in rat serum = assay: Osteocalcin (OC) in rat serum (Example 4); assay type: in vivo; conditions: Orx rats; for OC (osteocalcin) levels in serum: 10 days; for inhibitory effect on OC levels: 28 days
Description: This assay is specific for rat Osteocalcin and both carboxylated and decarboxylated rat Osteocalcin are recognized. A monoclonal antibody against the N-terminal region of Osteocalcin is bound to the polystyrene wells. The assay was performed in duplicates. 100 ul of standards, control and 1 to 20 diluted samples were added to appropriate wells and incubated overnight at 4 C. After washing the strips, 100 ul of Goat polyclonal antibody of high specificity for C-terminus of rat Osteocalcin was added and incubated 60 min at 37 C. After washing, 100 ul of Donkey anti-goat IgG peroxidase conjugated antibody was added and incubated 60 min at 22 C. The wells were washed and a mix of TMB and peroxide solution was added and incubated 30 min at 22 C in the dark. The reaction was stopped, and the absorbance was measured at 450 nm. A standard curve was constructed using 4-parametric logistic curve fit. Sample osteocalcin concentrations were determined by interpolation. Eight month-old male Sprague Dawley rats were either sham-operated (SHAM) or orchidectomized (ORX). Treatment began immediately following surgery. The treatment groups were as described in Table 5.

[3] = tested on: RatLaps (CTX) in rat serum; assay: CTX (RatLaps) in rat serum (Example 4); assay type: in vivo; conditions: Orx rats
Description: The assay was performed in duplicates, each 20 ul of serum as well as standards and control. Briefly, 100 ul of Biotinylated RatLaps Antigen was incubated 30 min in each well, strips were washed and 20 ul of Standard, Control and unknown samples were added to appropriate wells, followed by 100 ul of primary antibody (polyclonal Ab raised against a synthetic peptide EKSQDGGR specific for a part of the C-terminal telopeptide alpha 1 chain of rat type I collagen). After overnight incubation at 4 C., the wells were washed and 100 ul of Peroxidase conjugated Goat anti-Rabbit IgG Antibody was added to each well and incubated 60 min. After washing the strips 100 ul of the Chromogenic Substrate Solution was added to each well, and after 15 min the reaction was stopped and the absorbance was measured at 450 nm. The means of the duplicate absorbance determination were calculated, and a standard curve was constructed using 4-parametric logistic curve fit. Sample RatLaps concentrations were determined by interpolation.
Eight month-old male Sprague Dawley rats were either sham-operated (SHAM) or orchidectomized (ORX). Treatment began immediately following surgery. The treatment groups were as described in Table 5.

[4] = tested on: orchidectomized rats (ORX); assay: Three point bending test of the femoral shaft (Example 4); assay type: in vivo, rat; conditions: 12 weeks, mean
Description: Eight month-old male Sprague Dawley rats were either sham-operated (SHAM) or orchidectomized (ORX). Treatment began immediately following surgery. The treatment groups were as described in Table 5. Bone strength was evaluated using a compression test at the vertebral body, a three point bending test at the femoral shaft, a compression test at the distal femur and a cantilever compression test of the femoral neck. Prior to mechanical testing, all samples were thawed in cold saline and carefully cleaned of any remaining adherent soft tissue.

[5] = tested on: men with high-grade prostatic intraepithelial neoplasia (HGPIN); assay: Phase IIa clinical trial: bone turnover markers (serum calcium, alkaline phosphatase) in men treated with Toremifene; assay type: in vivo, human; conditions: 18 men with HGPIN, 60 mg/d Toremifene
Description: In a Phase IIa clinical trial to determine whether Toremifene has chemopreventive activity against prostate cancer, 18 men with high-grade prostatic intraepithelial neoplasia (HGPIN) were treated with 60 mg/d of Toremifene for 4 months.

[6] = 28 days, E 0.2 mg/kg/d, 10 mg Tor
[7] = 42 days, E 0.2 mg/kg/d, 10 mg-Tor
[8] = Toremifene 5 mg/kg/d, Estradiol 0.2 mg/kg/d

Structure (SMILES) | cancellous bone mineral content and density (Orx-induced decrease of 34%) [1] | Total Bone Area [1] | Total Bone Content [1] | Total Bone Density [1] | Trabecular Area [1] | Trabecular Content [1] | Trabecular Density [1] | mechanical strength parameters of the distal femur (maximum load, stiffness, ultimate strength, elastic modulus) [2] | Elastic Modulus [2] | Energy [2] | Maximum Load [2] | Stiffness [2] | Toughness [2] | Ultimate Strength [2] | CSA (cross sectional area) [2] | OC (osteocalcin) levels in serum (Osteocalcin in rat serum; E 0.2 mg/kg/d, 5 mg-Tor) | CTX levels in serum ([3]; 10 days) | CTX levels in serum [3, 6] | CTX levels in serum [3, 7] | Elastic Modulus [4, 8] | also measured
C[C@]12CC[C@@H]3c4ccc(O)cc4CC[C@H]3[C@@H]1CC[C@@H]2O [17-β-Estradiol] | fully prevent this cancellous bone loss | 15.95 mm^2 | 11.01 mg/mm | 690.74 mg/mL | 7.17 mm^2 | 1.52 mg/mm | 210.28 mg/mL | statistically significant improvements in these parameter values | 753.44 MPa | 58.28 mJ | 613.61 N | 4842.67 N/mm | 0.98 MJ/m³ | 31.23 N/mm^2 | 19.75 mm^2 | reversed OC levels to slightly below that of Sham group | Neither E nor Tor had any effect on CTX | reduced the CTX levels | CTX levels did not change further | 5149.41 MPa | Energy [4, 8]: 98.61 mJ; Maximum Load [4, 8]: 287.22 N; Stiffness [4, 8]: 986.71 N/mm; Toughness [4, 8]: 6.85 MJ/m^3; Ultimate Strength [4, 8]: 172.51 N/mm^2
CN(C)CCOc1ccc(/C(=C(/CCCl)c2ccccc2)c2ccccc2)cc1 [Toremifene] | partially prevented this decrease | 15.96 mm^2 | 10.69 mg/mm | 669.74 mg/mL | 7.18 mm^2 | 1.13 mg/mm | 157.56 mg/mL | improved various parameters to a level that was better than Sham-operated animals | 579.07 MPa | 56.96 mJ | 467.01 N | 3856.71 N/mm | 0.86 MJ/m³ | 22.13 N/mm^2 | 21.30 mm^2 | reversed OC levels to slightly below that of Sham group | Neither E nor Tor had any effect on CTX | reduced the CTX levels | significantly lower CTX levels | 4505.90 MPa | alkaline phosphatase, change compared to baseline (mean) ([5]; Day 60, p<0.001): −18.7; alkaline phosphatase, change compared to baseline (mean) ([5]; Day 120, p<0.001): −21.0; serum calcium, reduction from baseline (mean) ([5]; Day 120, p=0.005): −0.12; OC (osteocalcin) levels in serum (Osteocalcin in rat serum; 10 mg-Tor): reversed OC levels to slightly below that of Sham group; inhibitory effect on OC levels (Osteocalcin in rat serum; continued at 42 days, 10 mg-Tor): more pronounced than both 5 mg Tor and E; inhibitory effect on OC levels (Osteocalcin in rat serum; 5 mg-Tor): same as E; effect on CTX ([3]; 5 mg Tor): not uniform and cannot be interpreted; Energy [4, 8]: 83.40 mJ; Maximum Load [4, 8]: 263.54 N; Stiffness [4, 8]: 944.78 N/mm; Toughness [4, 8]: 5.67 MJ/m^3; Ultimate Strength [4, 8]: 150.45 N/mm^2; Elastic Modulus ([4]; Toremifene 10 mg/kg/d): 4557.46 MPa; Energy ([4]; Toremifene 10 mg/kg/d): 88.58 mJ; Maximum Load ([4]; Toremifene 10 mg/kg/d): 272.56 N; Stiffness ([4]; Toremifene 10 mg/kg/d): 910.47 N/mm; Toughness ([4]; Toremifene 10 mg/kg/d): 6.16 MJ/m^3; Ultimate Strength ([4]; Toremifene 10 mg/kg/d): 161.23 N/mm^2
